Laboratory results taken from ChEMBL document CHEMBL1201862, “PubChem BioAssay data set” (2004).
The source made the active and inactive calls.

Columns and labels:
[1] = viability loss in THP-1 monocytes – THP-1 cells, cytotoxicity control for Vif-APOBEC3G degradation inhibitor project, dose response (AID 1117359); assay type: functional; settings: THP-1
[2] = molecular target: T1, Endoribonuclease toxin MazF (Escherichia coli K-12, UniProt P0AE70); test: activation of MazEF endoribonuclease cleavage – biochemical, fluorescence, single-stranded RNA substrate, uHTS hits, dose response (AID 588481); assay type: functional
T1 sequence (P0AE70 whole entry): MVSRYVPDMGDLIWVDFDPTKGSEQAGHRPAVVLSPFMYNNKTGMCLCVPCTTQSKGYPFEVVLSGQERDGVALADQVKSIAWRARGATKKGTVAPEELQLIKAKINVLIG

[3] = viability of uninfected HEp-2 cells – cell-based, HTS, cytotoxicity control for RSV inhibitor project, dose response (AID 2410); assay type: functional; settings: human respiratory syncytial virus
[4] = molecular target: T1, Endoribonuclease toxin MazF; test: substrate-only fluorescence increase artefacts – biochemical, single-stranded RNase substrate, counter-screen for MazEF activator project, dose response (AID 588502); assay type: functional
[5] = blockers of HIV-1 envelope-mediated cell-cell fusion – cherry-pick, dose response (AID 652057); assay type: functional, cell-based
[6] = off-target signal loss in HeLa-CEM21 co-culture – HeLa F-luc CTL cells, cherry-picked, counter-screen for HIV-1 Env fusion inhibitor project, dose response (AID 652040); assay type: functional, cell-based;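 also: potency for signal decrease marking cytotoxic or nonspecific inhibition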
[7] = HIV-1 AD8 envelope cell-cell fusion blockers – cherry-pick, dose response (AID 652062); assay type: functional, cell-based;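 also: luciferase signal from cell-cell fusion driven by HIV-1 clade B AD8 Env; potency is for inhibitors of fusion seen as a drop in luminescence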
[8] = blockers of HIV-1 ZM109 envelope-driven cell-cell fusion – HeLa effector, CEM target cells, luciferase, cherry-pick, dose response (AID 652058); assay type: functional, cell-based;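 also: luciferase signal from HIV-1 Env mediated cell-cell fusion of effector and target cells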
[9] = molecular target: T2, RNA-binding protein pos-1 (Caenorhabditis elegans, UniProt G5EF15); test: disruptors of C. elegans POS-1 RNA interaction – biochemical, fluorescence polarization, dose response (AID 1964);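 also: purified POS-1 fused to maltose binding protein made in E. coli; potency of compounds blocking POS-1 binding to fluorescent RNA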
T2 sequence (G5EF15 whole entry): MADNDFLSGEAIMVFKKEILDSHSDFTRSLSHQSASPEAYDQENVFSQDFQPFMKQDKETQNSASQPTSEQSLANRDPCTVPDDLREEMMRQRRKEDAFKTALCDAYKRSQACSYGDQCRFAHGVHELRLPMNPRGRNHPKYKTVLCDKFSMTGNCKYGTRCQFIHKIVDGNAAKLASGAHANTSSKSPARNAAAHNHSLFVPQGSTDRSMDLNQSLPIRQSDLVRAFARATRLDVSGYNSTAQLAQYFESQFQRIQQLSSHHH

[10] = molecular target: T3, DNA repair and recombination protein RAD54-like (Homo sapiens, UniProt Q92698); test: RAD54 Holliday junction migration blockers – biochemical, fluorescence, cherry-picked samples, dose series, confirmation (AID 651657); assay type: functional
T3 sequence (Q92698 whole entry): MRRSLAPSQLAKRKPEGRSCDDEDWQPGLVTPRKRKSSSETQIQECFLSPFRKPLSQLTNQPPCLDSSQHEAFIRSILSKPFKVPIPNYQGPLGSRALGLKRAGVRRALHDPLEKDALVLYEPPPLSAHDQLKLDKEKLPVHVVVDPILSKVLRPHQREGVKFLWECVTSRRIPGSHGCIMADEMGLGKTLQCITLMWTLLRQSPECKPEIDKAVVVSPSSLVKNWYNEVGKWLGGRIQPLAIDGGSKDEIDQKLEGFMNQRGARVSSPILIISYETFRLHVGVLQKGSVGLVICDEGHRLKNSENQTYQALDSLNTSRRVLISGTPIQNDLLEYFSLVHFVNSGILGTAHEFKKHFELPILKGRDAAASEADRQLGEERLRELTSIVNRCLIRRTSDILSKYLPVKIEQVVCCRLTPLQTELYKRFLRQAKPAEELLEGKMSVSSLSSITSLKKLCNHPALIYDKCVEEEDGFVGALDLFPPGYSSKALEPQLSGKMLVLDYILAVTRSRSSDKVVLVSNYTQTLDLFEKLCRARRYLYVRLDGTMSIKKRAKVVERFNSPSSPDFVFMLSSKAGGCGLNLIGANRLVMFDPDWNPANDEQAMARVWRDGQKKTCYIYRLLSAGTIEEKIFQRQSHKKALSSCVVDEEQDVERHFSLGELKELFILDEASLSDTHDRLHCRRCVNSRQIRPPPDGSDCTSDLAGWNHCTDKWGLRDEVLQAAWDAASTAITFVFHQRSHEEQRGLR

[11] = molecular target: T4, DNA repair protein RAD52 homolog (Homo sapiens, UniProt P43351); assay type: functional, biochemical
T4 sequence (P43351 whole entry): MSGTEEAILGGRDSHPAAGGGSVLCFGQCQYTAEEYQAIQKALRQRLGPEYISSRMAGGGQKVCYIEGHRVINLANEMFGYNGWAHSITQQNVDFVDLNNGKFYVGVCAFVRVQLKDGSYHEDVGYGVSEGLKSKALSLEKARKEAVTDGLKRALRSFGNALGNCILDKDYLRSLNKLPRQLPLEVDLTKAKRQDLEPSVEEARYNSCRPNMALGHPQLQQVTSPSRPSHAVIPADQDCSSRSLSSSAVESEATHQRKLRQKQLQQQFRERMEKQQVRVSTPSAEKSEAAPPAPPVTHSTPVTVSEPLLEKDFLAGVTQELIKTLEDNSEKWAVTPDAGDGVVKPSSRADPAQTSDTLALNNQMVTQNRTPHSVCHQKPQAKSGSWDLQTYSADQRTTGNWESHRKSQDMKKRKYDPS

[12] = molecular target: T5, Zinc finger protein mex-5 (Caenorhabditis elegans, UniProt Q9XUB2); test: potency of MEX-5 RNA-binding blockers – biochemical, C. elegans, fluorescence polarization, dose response (AID 1960)
T5 sequence (Q9XUB2 whole entry): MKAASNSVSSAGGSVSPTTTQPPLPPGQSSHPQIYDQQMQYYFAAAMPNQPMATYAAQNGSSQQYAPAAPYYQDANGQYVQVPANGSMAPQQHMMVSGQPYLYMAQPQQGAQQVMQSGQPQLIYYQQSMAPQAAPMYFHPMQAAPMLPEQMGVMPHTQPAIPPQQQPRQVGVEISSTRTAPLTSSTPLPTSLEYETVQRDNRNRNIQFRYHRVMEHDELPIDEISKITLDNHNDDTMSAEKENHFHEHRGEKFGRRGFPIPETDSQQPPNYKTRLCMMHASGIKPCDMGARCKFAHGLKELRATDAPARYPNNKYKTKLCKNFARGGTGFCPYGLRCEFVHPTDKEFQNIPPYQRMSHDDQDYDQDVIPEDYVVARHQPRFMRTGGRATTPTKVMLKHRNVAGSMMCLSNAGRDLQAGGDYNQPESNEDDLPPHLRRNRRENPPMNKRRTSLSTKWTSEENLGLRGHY

[13] = A549 cell cytotoxicity, dose response, cytotoxicity control, plate reader, cherry-pick, antagonist series (AID 743412); assay type: functional, cell-based
[14] = reduced cellular PGC1a acetyl-lysine signal – cell-based, cherry-picked samples, dose response (AID 720514); assay type: functional;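 also: potency may reflect raised or lowered acetylation signal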
Paired box protein Pax-8 = Paired box protein Pax-8 (Homo sapiens, UniProt Q06710); test: PAX8 transcriptional activity inhibition in RMG-I – RMG-I cells, luciferase, cherry-pick, dose response (AID 687027); assay type: functional, cell-based;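 also: luciferase reporter driven by Pax8 target thyroperoxidase promoter measured by SteadyGlo luminescence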
[15] = toxicity toward HepG2 liver cells – cell-based, plate reader, cherry-pick, antagonist series, cytotoxicity control, dose response (AID 743416); assay type: functional
[16] = blockade of melanocortin 4 receptor signaling – cell-based, plate reader, cherry pick, counter-screen for LGR2 antagonist project, dose response (AID 743444); assay type: functional;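 also: transfected HEK 293 cells stimulated with alpha-MSH peptide; potency of inhibitors of the alpha-MSH evoked signal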
[17] = blockers of bursicon-stimulated LGR2 cAMP reporter – cell-based, HEK293, CRE-luciferase reporter, cherry pick, set 2, dose response (AID 743343); assay type: functional;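 also: transfected cells were stimulated with diluted bursicon conditioned medium after compound addition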
[18] = viability loss in HEK293 cells – cell-based, plate reader, cherry-picked samples, cytotoxicity control, dose response (AID 743446); assay type: functional
[19] = general cell-killing toxicity readout – plate reader, dry powder samples, cytotoxicity control for PAX8 inhibitor project, dose response (AID 743021); assay type: functional, cell-based

Chain of Paired box protein Pax-8 (Q06710 whole entry): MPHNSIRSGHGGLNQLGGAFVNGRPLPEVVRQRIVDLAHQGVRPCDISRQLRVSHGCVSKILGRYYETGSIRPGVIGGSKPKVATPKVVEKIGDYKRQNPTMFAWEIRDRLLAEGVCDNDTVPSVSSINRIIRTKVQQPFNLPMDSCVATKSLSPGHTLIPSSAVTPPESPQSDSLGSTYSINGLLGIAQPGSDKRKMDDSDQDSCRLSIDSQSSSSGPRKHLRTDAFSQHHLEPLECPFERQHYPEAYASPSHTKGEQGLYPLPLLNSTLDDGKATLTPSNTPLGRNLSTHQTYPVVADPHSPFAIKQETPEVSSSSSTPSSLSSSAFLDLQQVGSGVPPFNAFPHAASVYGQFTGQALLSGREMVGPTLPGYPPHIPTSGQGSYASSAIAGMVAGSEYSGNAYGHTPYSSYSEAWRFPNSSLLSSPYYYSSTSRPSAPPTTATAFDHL

COc1ccc(CCNCc2ccc(OCc3ccccc3)cc2)cc1
CC50 [1]: 21.9 µM (active)

O=c1oc(/C=C/c2ccccc2)nc2sc3c(c12)CCC3
EC50 [2]: > 99 µM (inactive)
CC50 [3]: 28.4 µM (active)
EC50 [4]: > 99 µM (inactive)
IC50 (cells): 39.6 µM (active)

O=C(NCc1ccco1)c1ccc(Cn2c(=O)c3sccc3n(Cc3cccc(F)c3)c2=O)cc1
AC50 [5]: < 260 nM (active)
CC50 [3]: > 12.5 µM (active)
AC50 [6]: 348 nM (active)
IC50 (cells): 5.66 µM (active)
AC50 [7]: 2.36 µM (active)
AC50 [8]: 580 nM (active)

CC(C)OCC(O)CN1CCN(CCN2C(=O)c3cccc4cccc(c34)C2=O)CC1 (centres undefined)
EC50 [9]: > 300 µM (not active)
AC50 [10]: 8.86 µM (active)
AC50 [11]: 3.93 µM (active)
EC50 [12]: > 300 µM (not active)

O=C(c1ccco1)N1CCN(C(=O)C2CCCc3c2[nH]c2ccc(Cl)cc32)CC1 (centres undefined)
CC50 [3]: 16.2 µM (active)
IC50 (cells): 16 µM (active)

COc1cc(C(=O)NC2CCN(C)CC2)ccc1Nc1ncc2c(n1)N(CCc1ccccc1)CCC(=O)N2C
AC50 [11]: 8.71 µM (active)

Oc1nc2ccccc2n1C1CCN(C(c2cc3ccccc3o2)c2nnnn2Cc2ccccc2)CC1 (centres undefined)
AC50 [13]: 9.97 µM (active)
AC50 [14]: 9.76 µM (active)
AC50 (Paired box protein Pax-8): 6.31 µM (active)
AC50 [15]: 24.8 µM (active)
AC50 [16]: 9.44 µM (active)
AC50 [17]: 13.5 µM (active)
AC50 [18]: 14.7 µM (active)
AC50 [19]: 19 µM (active)

O=C(N[C@@H]1CC[C@@H](CCNS(=O)(=O)c2ccccc2Cl)O[C@@H]1CO)c1ccc(F)cc1
AC50 [14]: 36.1 µM (active)

COc1ccc(-c2cc(C(=O)N/N=C/c3ccc4c(c3)OCO4)c3ccccc3n2)c(OC)c1
CC50 [3]: 44.4 µM (active)
IC50 (cells): 27.9 µM (active)
